The text below walks through data of patent publication US20240158392A1 (Janssen Biotech, Inc., priority 2021, published 2024).

pIC50: −log10 of the molar value. Where two headings read alike, the source gives them in different places.

This assay has as its target SIK2 (Homo sapiens, UniProt Q9H0K1). The assay is described as follows: SIK2 Enzymatic Assay High Version 2 (High ATP). To be noted: for IC50: enzyme 6 nM, 6 mM ATP and 400 μM HDAC5tide (each 2× final concentration), 30 minutes pre-incubation, 2 hours, ADP-Glo Max luminescence, read-out: SIK2 high ATP IC50 (μM) (Test Example 2). The format is biochemical. Summed up: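 At room temperature, enzyme (6 nM, 2× final) was preincubated with compound for 30 min, then 6 mM ATP and 400 μM HDAC5tide (both 2× final) were added for 2 h. ADP formed was measured by ADP-Glo Max (2 h reagent, 1 h detection) using luminescence.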
In general terms: ADP-Glo first removes unused ATP, then detects ADP through luciferase.

Chain of SIK2 (Q9H0K1 whole entry, species assumed): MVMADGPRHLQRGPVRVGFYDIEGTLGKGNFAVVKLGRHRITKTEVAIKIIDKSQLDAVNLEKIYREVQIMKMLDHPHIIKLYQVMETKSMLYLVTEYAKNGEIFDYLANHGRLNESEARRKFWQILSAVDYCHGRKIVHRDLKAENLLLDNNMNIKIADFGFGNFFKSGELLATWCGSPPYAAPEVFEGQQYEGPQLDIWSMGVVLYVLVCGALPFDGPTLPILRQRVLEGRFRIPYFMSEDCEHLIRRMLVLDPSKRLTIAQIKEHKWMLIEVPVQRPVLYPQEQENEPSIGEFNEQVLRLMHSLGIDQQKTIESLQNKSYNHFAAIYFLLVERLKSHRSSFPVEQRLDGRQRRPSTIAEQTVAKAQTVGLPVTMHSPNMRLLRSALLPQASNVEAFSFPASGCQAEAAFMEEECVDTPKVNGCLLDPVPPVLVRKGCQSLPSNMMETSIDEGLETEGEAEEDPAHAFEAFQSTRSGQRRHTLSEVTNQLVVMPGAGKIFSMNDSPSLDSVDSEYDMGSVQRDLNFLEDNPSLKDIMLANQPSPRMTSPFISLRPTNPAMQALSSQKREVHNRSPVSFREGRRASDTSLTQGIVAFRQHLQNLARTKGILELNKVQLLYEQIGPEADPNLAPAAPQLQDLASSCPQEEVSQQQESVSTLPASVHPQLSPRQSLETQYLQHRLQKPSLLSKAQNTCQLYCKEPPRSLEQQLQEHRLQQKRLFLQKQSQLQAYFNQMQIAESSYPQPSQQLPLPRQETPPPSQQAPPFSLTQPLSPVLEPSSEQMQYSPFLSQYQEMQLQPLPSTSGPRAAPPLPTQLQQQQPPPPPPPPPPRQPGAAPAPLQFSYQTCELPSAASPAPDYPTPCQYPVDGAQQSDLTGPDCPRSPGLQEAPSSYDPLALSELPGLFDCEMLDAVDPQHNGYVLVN

The term IC50 denotes the midpoint of a concentration-inhibition curve. In the case of `Cc1cc(-c2ccn3nc(Nc4cc(C)nc(C)n4)cc3c2)c(O[C@@H]2CCS(=O)(=O)C2)cn1` [Example 344, N-(2,6-dimethylpyrimidin-4-yl)-5-[5-[(3R)-1,1-dioxothiolan-3-yl]oxy-2-methyl-4-pyridyl]pyrazolo[1,5-a]pyridin-2-amine], the IC50 is 0.00362 µM.

As to `Cc1cc(-c2ccn3nc(Nc4ccc(C(=O)NC(C)C)c(C)c4)cc3c2)c(OCC(C)(C)O)cn1` [Example 345, 4-[[5-[5-(2-hydroxy-2-methyl-propoxy)-2-methyl-4-pyridyl]pyrazolo[1,5-a]pyridin-2-yl]amino]-N-isopropyl-2-methyl-benzamide], the IC50 was found to be 0.0306 µM.

As usually defined, the pIC50 is −log10 of the IC50, conventionally taken in molar units. A high value points to a low IC50. Compound `Cc1cc(-c2cn3cc(Nc4cc(C)nc(C)n4)nc3cn2)c(OC2C[C@H]3COC[C@@H](C2)N3C)cn1` (stereo partly drawn) [Example 349, N-(2,6-dimethylpyrimidin-4-yl)-6-[2-methyl-5-[[(1R,5S)-9-methyl-3-oxa-9-azabicyclo[3.3.1]nonan-7-yl]oxy]-4-pyridyl]imidazo[1,2-a]pyrazin-2-amine] gave a pIC50 above 9.07.

`Cc1cc(-c2cn3cc(Nc4cc(C)nc(C)n4)nc3cn2)c(O[C@H]2C[C@H]3COC[C@@H](C2)N3)cn1` [Example 350, N-(2,6-dimethylpyrimidin-4-yl)-6-[2-methyl-5-[[(1R,5S)-3-oxa-9-azabicyclo[3.3.1]nonan-7-yl]oxy]-4-pyridyl]imidazo[1,2-a]pyrazin-2-amine] had a pIC50 of 7.39.

In turn, `CNC(=O)c1ccc(Nc2cc3cc(-c4cc(C)ncc4O[C@H]4C[C@H]5COC[C@@H](C4)N5C(C)=O)ccn3n2)nc1` [Example 356, 6-[[5-[5-[[(1S,5R)-9-acetyl-3-oxa-9-azabicyclo[3.3.1]nonan-7-yl]oxy]-2-methyl-4-pyridyl]pyrazolo[1,5-a]pyridin-2-yl]amino]-N-methyl-pyridine-3-carboxamide] had a pIC50 above 9.07.

`CNC(=O)c1c(OC)cc(Nc2cc3cc(-c4cc(C)ncc4OC4C[C@H]5COC[C@@H](C4)N5)ccn3n2)cc1OC` (stereo partly drawn) [Example 357, 2,6-dimethoxy-N-methyl-4-[[5-[2-methyl-5-[[(1S,5R)-3-oxa-9-azabicyclo[3.3.1]nonan-7-yl]oxy]-4-pyridyl]pyrazolo[1,5-a]pyridin-2-yl]amino]benzamide] showed a pIC50 of 9.00.

`CNC(=O)c1c(C)cc(Nc2cc3cc(-c4cc(C)ncc4O[C@H]4C[C@H]5COC[C@@H](C4)N5C(C)=O)ccn3n2)nc1C` [Example 358, 6-[[5-[5-[[(1R,5S,7s)-9-acetyl-3-oxa-9-azabicyclo[3.3.1]nonan-7-yl]oxy]-2-methyl-4-pyridyl]pyrazolo[1,5-a]pyridin-2-yl]amino]-N,2,4-trimethyl-pyridine-3-carboxamide] had a pIC50 of 8.11.

As to `Cc1cc(-c2ccn3nc(Nc4cc(C)nc(C)n4)cc3c2)c(OCC(C)(C)N)cn1` [Example 359, 5-[5-(2-amino-2-methyl-propoxy)-2-methyl-4-pyridyl]-N-(2,6-dimethylpyrimidin-4-yl)pyrazolo[1,5-a]pyridin-2-amine], the IC50 came out at 0.0271 µM.

Consider `CC(=O)NC(C)(C)COc1cnc(C)cc1-c1ccn2nc(Nc3cc(C)nc(C)n3)cc2c1` [Example 360, N-[2-[[4-[2-[(2,6-dimethylpyrimidin-4-yl)amino]pyrazolo[1,5-a]pyridin-5-yl]-6-methyl-3-pyridyl]oxy]-1,1-dimethyl-ethyl]acetamide], for which the IC50 is 0.0058 µM.

As to `Cc1cc(-c2ccn3nc(Nc4cc(C)nc(C)n4)cc3c2)c(OCC(C)(C)NS(C)(=O)=O)cn1` [Example 361, N-[2-[[4-[2-[(2,6-dimethylpyrimidin-4-yl)amino]pyrazolo[1,5-a]pyridin-5-yl]-6-methyl-3-pyridyl]oxy]-1,1-dimethyl-ethyl]methanesulfonamide], the IC50 stood at 0.00703 µM.

For `CC#Cc1cc(-c2ccn3nc(Nc4cc(C)nc(C)n4)cc3c2)c(N[C@H]2CC[C@@H](O)CC2)cn1` [Example 362, 4-[[4-[2-[(2,6-dimethylpyrimidin-4-yl)amino]pyrazolo[1,5-a]pyridin-5-yl]-6-prop-1-ynyl-3-pyridyl]amino]cyclohexanol], the IC50 came to 0.016 µM.

`Cc1cc(-c2ccn3nc(Nc4cc(C)nc(C)n4)cc3c2)c(OC[C@@H]2CN(C)C(=O)N2)cn1` [Example 365, (4S)-4-[[4-[2-[(2,6-dimethylpyrimidin-4-yl)amino]pyrazolo[1,5-a]pyridin-5-yl]-6-methyl-3-pyridyl]oxymethyl]-1-methyl-imidazolidin-2-one] gave a pIC50 above 9.07.

In the case of `Cc1cc(-c2ccn3nc(Nc4cccc(C(F)(F)F)n4)cc3c2)c(O[C@H]2C[C@H]3COC[C@@H](C2)N3)cn1` [Example 366, 5-[2-methyl-5-[[(1S,5R, 7s)-3-oxa-9-azabicyclo[3.3.1]nonan-7-yl]oxy]-4-pyridyl]-N-[6-(trifluoromethyl)-2-pyridyl]pyrazolo[1,5-a]pyridin-2-amine], the pIC50 was 8.81.

The compound `CNC(=O)c1cccc(Nc2cc3cc(-c4cc(C)ncc4O[C@H]4C[C@H]5COC[C@@H](C4)N5)ccn3n2)n1` [Example 367, N-methyl-6-[[5-[2-methyl-5-[[(1S,5R,7s)-3-oxa-9-azabicyclo[3.3.1]nonan-7-yl]oxy]-4-pyridyl]pyrazolo[1,5-a]pyridin-2-yl]amino]pyridine-2-carboxamide] had a pIC50 of 8.17.

For `Cc1cc(-c2ccn3nc(Nc4ccnnc4)cc3c2)c(O[C@H]2C[C@H]3COC[C@@H](C2)N3)cn1` [Example 368, 5-[2-methyl-5-[[(1S,5R,7s)-3-oxa-9-azabicyclo[3.3.1]nonan-7-yl]oxy]-4-pyridyl]-N-pyridazin-4-yl-pyrazolo[1,5-a]pyridin-2-amine], the pIC50 is above 9.07.

`Cc1cc(-c2ccn3nc(Nc4ccc(C(=O)NCCO)cn4)cc3c2)c(O[C@H]2C[C@H]3COC[C@@H](C2)N3)cn1` [Example 369, N-(2-hydroxyethyl)-6-[[5-[2-methyl-5-[[(1S,5R,7s)-3-oxa-9-azabicyclo[3.3.1]nonan-7-yl]oxy]-4-pyridyl]pyrazolo[1,5-a]pyridin-2-yl]amino]pyridine-3-carboxamide] had a pIC50 of 8.78.

The compound `Cc1cc(-c2ccn3nc(Nc4ccc(C(=O)O)cn4)cc3c2)c(O[C@H]2C[C@H]3COC[C@@H](C2)N3)cn1` [Example 370, 6-[[5-[2-methyl-5-[[(1S,5R,7s)-3-oxa-9-azabicyclo[3.3.1]nonan-7-yl]oxy]-4-pyridyl]pyrazolo[1,5-a]pyridin-2-yl]amino]pyridine-3-carboxylic Acid] gave a pIC50 above 9.07.

`Cc1cc(-c2ccn3nc(Nc4ccc(C(=O)NCC(C)(C)O)cn4)cc3c2)c(O[C@H]2C[C@H]3COC[C@@H](C2)N3)cn1` [Example 371, N-(2-hydroxy-2-methyl-propyl)-6-[[5-[2-methyl-5-[[(1S,5R,7s)-3-oxa-9-azabicyclo[3.3.1]nonan-7-yl]oxy]-4-pyridyl]pyrazolo[1,5-a]pyridin-2-yl]amino]pyridine-3-carboxamide]: the pIC50 was above 9.07.

Turning to `Cc1cc(-c2ccn3nc(Nc4ccnc(C)n4)cc3c2)c(O[C@H]2C[C@H]3COC[C@@H](C2)N3)cn1` [Example 372, 5-[2-methyl-5-[[(1S,5R,7s)-3-oxa-9-azabicyclo[3.3.1]nonan-7-yl]oxy]-4-pyridyl]-N-(2-methylpyrimidin-4-yl)pyrazolo[1,5-a]pyridin-2-amine], the pIC50 is above 9.07.

Turning to `Cc1cc(-c2ccn3nc(Nc4ccc(C(=O)NCC5CCOCC5)cn4)cc3c2)c(O[C@H]2C[C@H]3COC[C@@H](C2)N3)cn1` [Example 373, 6-[[5-[2-methyl-5-[[(1R,5S,7s)-3-oxa-9-azabicyclo[3.3.1]nonan-7-yl]oxy]-4-pyridyl]pyrazolo[1,5-a]pyridin-2-yl]amino]-N-(tetrahydropyran-4-ylmethyl)pyridine-3-carboxamide], the pIC50 is above 9.07.

In the case of `Cc1cc(-c2ccn3nc(Nc4ccc(C(F)(F)F)cn4)cc3c2)c(O[C@H]2C[C@H]3COC[C@@H](C2)N3)cn1` [Example 374, 5-[2-methyl-5-[[(1S,5R,7s)-3-oxa-9-azabicyclo[3.3.1]nonan-7-yl]oxy]-4-pyridyl]-N-[5-(trifluoromethyl)-2-pyridyl]pyrazolo[1,5-a]pyridin-2-amine], the negative logarithm of the IC50 (pIC50) is above 9.07.

`Cc1cc(-c2ccn3nc(Nc4cnc(C(F)(F)F)cn4)cc3c2)c(O[C@H]2C[C@H]3COC[C@@H](C2)N3)cn1` [Example 375, 5-(5-(((1R,5S,7s)-3-oxa-9-azabicyclo[3.3.1]nonan-7-yl)oxy)-2-methylpyridin-4-yl)-N-(5-(trifluoromethyl)pyrazin-2-yl)pyrazolo[1,5-a]pyridin-2-amine] had a pIC50 of 8.94.

Compound `Cc1cc(-c2ccn3nc(Nc4ccc(C(N)=O)cn4)cc3c2)c(O[C@H]2C[C@H]3COC[C@@H](C2)N3)cn1` [Example 376, 6-[[5-[2-methyl-5-[[(1R,5S,7s)-3-oxa-9-azabicyclo[3.3.1]nonan-7-yl]oxy]-4-pyridyl]pyrazolo[1,5-a]pyridin-2-yl]amino]pyridine-3-carboxamide] gave a negative logarithm of the IC50 (pIC50) of 8.87.

In the case of `CCCNC(=O)c1ccc(Nc2cc3cc(-c4cc(C)ncc4O[C@H]4C[C@H]5COC[C@@H](C4)N5)ccn3n2)nc1` [Example 377, 6-[[5-[2-methyl-5-[[(1R,5S,7s)-3-oxa-9-azabicyclo[3.3.1]nonan-7-yl]oxy]-4-pyridyl]pyrazolo[1,5-a]pyridin-2-yl]amino]-N-propyl-pyridine-3-carboxamide], the pIC50 is above 9.07.

`Cc1cc(-c2ccn3nc(Nc4cc(C(F)(F)F)ccn4)cc3c2)c(O[C@H]2C[C@H]3COC[C@@H](C2)N3)cn1` [Example 378, 5-[2-methyl-5-[[(1S,5R,7s)-3-oxa-9-azabicyclo[3.3.1]nonan-7-yl]oxy]-4-pyridyl]-N-[4-(trifluoromethyl)-2-pyridyl]pyrazolo[1,5-a]pyridin-2-amine]: the pIC50 was above 9.07.
